Reference: patent publication US6566047B1, “Method for identifying neurite-growth promoting agents” (The Regents of the University of Colorado, priority 1998, dated 2003)
Read-outs that look alike come from different tables or passages of the source.

Assays:
[1] = tested on: MAT-Lu cells; assay: Pseudopod morphometry (pseudopod length assay), MAT-Lu cells; format: cell-based, rat
Procedure, shortened: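 Cells plated at 1×10^4 per 35-mm dish overnight, shifted to serum-free medium 1 h, then exposed to thrombin, AA or HETEs in medium or by local micropipette puff. Phase-contrast images over time at heated stage; length measured from nucleus centre to process tip, analysed by gamma regression and non-parametric tests.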

[2] = tested on: cPLA2; assay: cPLA2 activity in PC-3M-MM2 cells; format: biochemical, human
Experimental: PLA2 stimulation. Using ^14C-AA-PE, -PC or -PI as a substrate, thrombin, SemaIV and netrin activation of the enzyme are measured. For these assays, commercially available thrombin or thrombin-receptor-activating peptide (TRAP) (Sigma, St. Louis, Mo.), recombinant SemaIV provided to us by Dr. H. Drabkin, University of Colorado School of Medicine, recombinant SemaIII provided by Dr. Y. Luo, Exelixis Pharmaceuticals, San Francisco Calif., and recombinant netrin from Dr. M. Tessier-Lavigne, (University of California, San Francisco) are used. Time courses and dose-response curves are generated with the appropriate substrate(s). These assays are carried out according to well-established protocols described in Negre-Aminou et al., 1996, supra, incorporated herein by reference, on cells grown to equal density levels (as determined by protein and DNA content). Some enzyme assays are carried out in the presence of reducing agent, which blocks secreted but not cytosolic PLA2 activity, to exclude potential interference by secreted PLA2. To characterize the stimulated cPLA2 further, cultured cells are homogenized in protease inhibitor-containing buffer, in the presence of 1 mM EDTA or 0.3 mM Ca^2+, and then centrifuged in order to generate crude membrane fractions and cytosolic extracts. […] In separate experiments, enzyme activity is measured in the presence of different concentrations of free calcium to determine whether the enzyme activity is calcium-dependent or not

[3] = tested on: PC-3M-MM2 cells; assay: Boyden chamber assay, PC-3M-MM2 cells; format: cell-based, human
Experimental: In addition, seven human prostate carcinoma cell lines were used (see Table 2). One or two cell lines of medium to high motility (e.g., PC-3M-MM2 and DU145) are first selected. The PC-3M-MM2 cells disperse rapidly in the dish and, like the MAT-Lu cells, never form colonies. Cells are grown according to standard procedures. Large numbers of aliquots of all cancer cell lines arc collected and frozen in order to avoid the use of higher passage numbers in later experiments. As the experimentation progresses, the motility and morphology of the cells is re-checked to avoid distortion of results by changes in phenotype. For experimental use, cells are kept well below confluence. In order to test for potential effects of the growth matrix, cells are grown for selected experiments not only on serum-conditioned tissue culture plastic but also on laminin, collagen, fibronectin or Matrigel (Life Technologies/GIBCO-BRL, Gaitheresberg, Md.; Becton Dickinson/Collaborative Biomedical Products, Bedford Mass.). […] The motility, of all cells is assessed quantitatively using the (long-term) Boyden chamber assay as described in Boyden, J. Exp. Med. 115:453-466 (1962), incorporated herein by reference. […] The relative number of cells moving within 3-6 hours across the membrane from the upper well is counted in the presence or absence of IGF-1 in the lower chamber.

[4] = tested on: growth cone PLC; assay: Phospholipase C assay (DG release) in GCPs; format: biochemical, rat; details: GCPs; thrombin 100 nM; calcium-dependent
From the text: All assays were run in triplicate.

[5] = tested on: PLA2; details: Table 3a, 100 nM
Experimental: Phospholipase Assays. For PLA2 assays, GCPs suspended in modified Ca^2+-free Krebs buffer (10-30 μg protein/assay) were first incubated for 10 min on ice in the presence or absence of effectors. Subsequently, phospholipid substrate (PC, PE or PI) containing radiolabelled AA (7 μM; 50,000 cpm/assay) was added and the reaction carried out at 37° C. for 10 minutes. Typically, assay mixtures contained 10 μM CaCl2; specific modifications are described in the figure legends. For phospholipase C (PLC) assays, conditions were the same when run in parallel with PLA2 assays. When PLC assays were run independently, Ca^2+ was increased to 1 mM. Reactions were terminated by the addition of 3.75 volumes of cold chloroform/methanol (1:2). PLA2 assays also were performed on neurons dissociated from fetal rat cerebral cortex. The assay conditions were the same as those just described for GCPs.
Products recovered in chloroform were loaded onto silica gel 60 TLC plates and developed as described earlier (Nègre-Aminou and Pfenninger, 1993) in hexane/ether/acetic acid (40:60:1). AA and DG were identified on TLC by co-migration with authentic standards. The appropriate bands were excised into scintillation fluid and counted on a Beckman LS 1801 scintillation sprectrometer. All assays were run in triplicate.

## thrombin: potent growth cone repellent; commercially available thrombin (Sigma); rat thrombin in Boyden assays
[1]
  time to pseudopod retraction after addition to cells in culture dish: 5 to 10 min
[1]; typically 15 min exposure
  effect of agent alone on pseudopod length: caused pseudopod shortening in MAT-Lu cells within minutes of administration
[2]
  stimulation of AA release from PC: about 4 fold
  stimulation of AA release from PE: about 4 fold
  stimulation of PI hydrolysis: not further stimulated by thrombin
[3]
  effect on cell motility: potent inhibitor of cell motility
[4]
  effect on DG release from PI: inhibits DG release, rather than stimulating it
[5]; substrate PE
  net activity (pmol/min/mg protein), intact neurons: 26.8 ± 1.9 pmol/min/mg protein
[5]; substrate PI
  net activity (pmol/min/mg protein), intact neurons: 42.5 ± 16 pmol/min/mg protein
